The record followed here is ChEMBL document CHEMBL1157437, “Synthesis and biological activities of reveromycin A and spirofungin A derivatives” (Bioorg Med Chem Lett, 2008).

In brackets after ≈: the same amount, converted by molar mass.

Data set [1] deals with T1, Isoleucine--tRNA ligase, cytoplasmic (Homo sapiens, UniProt P41252).
T1 sequence (P41252 whole entry): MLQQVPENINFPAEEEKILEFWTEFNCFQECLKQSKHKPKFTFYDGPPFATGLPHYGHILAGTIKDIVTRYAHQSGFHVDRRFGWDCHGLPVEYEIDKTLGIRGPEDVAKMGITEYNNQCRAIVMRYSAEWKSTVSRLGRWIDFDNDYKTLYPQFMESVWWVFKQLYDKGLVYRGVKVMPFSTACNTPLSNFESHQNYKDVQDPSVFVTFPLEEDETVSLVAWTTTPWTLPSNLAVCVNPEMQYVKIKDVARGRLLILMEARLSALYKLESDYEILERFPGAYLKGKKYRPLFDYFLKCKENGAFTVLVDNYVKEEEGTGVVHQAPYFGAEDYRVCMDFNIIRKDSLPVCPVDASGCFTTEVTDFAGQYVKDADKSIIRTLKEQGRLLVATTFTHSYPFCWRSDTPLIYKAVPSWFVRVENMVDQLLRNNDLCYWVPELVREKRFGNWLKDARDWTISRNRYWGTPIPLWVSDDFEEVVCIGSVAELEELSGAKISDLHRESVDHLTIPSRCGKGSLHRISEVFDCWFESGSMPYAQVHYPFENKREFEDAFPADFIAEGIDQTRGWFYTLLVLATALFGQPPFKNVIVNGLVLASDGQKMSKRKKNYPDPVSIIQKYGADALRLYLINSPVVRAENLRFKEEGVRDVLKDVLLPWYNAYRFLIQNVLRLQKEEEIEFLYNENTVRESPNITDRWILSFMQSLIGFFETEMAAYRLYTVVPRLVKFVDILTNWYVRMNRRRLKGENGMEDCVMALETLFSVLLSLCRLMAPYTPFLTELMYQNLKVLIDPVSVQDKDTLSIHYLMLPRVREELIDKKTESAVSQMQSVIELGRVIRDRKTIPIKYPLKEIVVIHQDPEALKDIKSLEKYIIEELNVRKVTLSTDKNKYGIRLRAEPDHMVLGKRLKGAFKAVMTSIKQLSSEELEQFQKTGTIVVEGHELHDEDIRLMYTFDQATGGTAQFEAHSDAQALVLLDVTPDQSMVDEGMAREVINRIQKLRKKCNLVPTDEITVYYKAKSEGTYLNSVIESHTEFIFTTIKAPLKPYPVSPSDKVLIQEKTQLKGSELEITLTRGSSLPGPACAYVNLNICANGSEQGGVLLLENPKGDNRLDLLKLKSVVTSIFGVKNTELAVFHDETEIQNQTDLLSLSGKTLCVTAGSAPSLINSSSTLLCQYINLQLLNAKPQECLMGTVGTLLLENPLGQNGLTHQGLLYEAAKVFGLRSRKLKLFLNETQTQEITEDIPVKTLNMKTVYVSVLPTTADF
Description: Inhibition of IleRS.

For data set [2], the system named is NRK. Put plainly: Effect on morphological reversion in src transformed NRK cells at 100 ug/mL. The conditions noted are these: Rattus norvegicus. The format is functional.
Data set [3] deals with NRK. Put plainly: Effect on morphological reversion in src transformed NRK cells at 30 ug/mL. The format is functional. The conditions noted are these: Rattus norvegicus.
The test system of data set [4] is NRK. Put plainly: Effect on morphological reversion in src transformed NRK cells at 10 ug/mL. The format is functional. As to conditions: Rattus norvegicus.
Data set [5] deals with NRK. Put plainly: Effect on morphological reversion in src transformed NRK cells at 3 ug/mL. The format is functional. As to conditions: Rattus norvegicus.
For data set [6], the system named is NRK. Description: Effect on morphological reversion in src transformed NRK cells at 1 ug/mL. The format is functional. As to conditions: Rattus norvegicus.
For data set [7], the system named is NRK. Description: Effect on morphological reversion in src transformed NRK cells at 0.3 ug/mL. The class given is functional. The conditions noted are these: Rattus norvegicus.
In data set [8] the test system is Osteoclast. Description: Induction of apoptosis in mouse osteoclasts. The class given is functional.
Data set [9] deals with NRK. Put plainly: […] morphological reversion in src transformed NRK cells. The format is functional, cell-based. As to conditions: Rattus norvegicus.
Data set [10] deals with NRK. Description: Toxicity against src transformed NRK cells at 100 ug/mL. The format is cell-based. The conditions noted are these: rat.

For `CCCC[C@@]1(OC(=O)CCC(=O)O)CC[C@]2(CC[C@H](C)[C@@H](C/C=C(C)/C=C/[C@H](O)[C@@H](O)/C=C/C(=O)O)O2)O[C@H]1/C=C/C(C)=C/C(=O)O` [4-HYDROXY REVEROMYCIN A], inhibition in data set [1] was half-maximal at 21.7 nM (IC50). Moreover, the inhibition (as a rule, the change of the read-out against control, counted positive when it falls) at 100 µg/mL in data set [2] was above 80%. In data set [3], this compound registered an inhibition at 30 µg/mL of 20%. In data set [4], testing at 10 µg/mL gave an inhibition of 10%. Also, in data set [5], the inhibition at 3 µg/mL is below 10%. Besides, the inhibition at 1 µg/mL in data set [6] is below 10%. In data set [7], this compound gave an inhibition at 0.3 µg/mL below 10%. Moreover, in [8], the Activity came out at 1.01 µg/mL.
Regarding `CCCC[C@@]1(OC(=O)CCC(=O)O)CC[C@]2(CC[C@H](C)[C@@H](C/C=C(C)/C=C/[C@H](O)[C@@H](C)CO)O2)O[C@H]1/C=C/C(C)=C/C(=O)O`, the 50% inhibitory concentration (IC50) – broadly, the midpoint of a concentration-inhibition curve – in data set [1] is 36.9 nM. The compound also yielded an inhibition at 100 µg/mL in data set [2] above 80%. Also, the inhibition at 30 µg/mL in data set [3] amounted to 20%. The compound also came in with an inhibition at 10 µg/mL in data set [4] below 10%. The same compound returned an inhibition at 3 µg/mL in data set [5] below 10%. Further, the inhibition at 1 µg/mL in data set [6] was below 10%. In [7], this compound gave an inhibition at 0.3 µg/mL below 10%. Moreover, the Activity in [8] is 6.31 µg/mL.
In [1], `CCCC[C@@]1(OC(=O)CCC(=O)O)CC[C@]2(CC[C@H](C)[C@@H](C/C=C(C)/C=C/[C@H](O)[C@@H](C)/C=C/C(=O)O)O2)O[C@H]1/C=C/C(C)=C/C(=O)O` [REVEROMYCIN A] showed an IC50 of 4.46 nM. The compound also yielded an inhibition at 100 µg/mL in data set [2] above 80%. This compound also gave an inhibition at 30 µg/mL in [3] above 80%. Also, the inhibition at 10 µg/mL in [4] is 50%. This compound also displayed an inhibition at 3 µg/mL in data set [5] of 20%. The compound further had an inhibition at 1 µg/mL in [6] of 10%. Besides, the inhibition at 0.3 µg/mL in data set [7] is below 10%. Further, the Activity in data set [8] was 0.06 µg/mL. The EC50 (usually the midpoint of the concentration-response curve) in data set [9] was found to be 1.58 µg/mL (≈ 2.39 µM).
In turn, `CC(/C=C/[C@H](OC(=O)CCC(=O)O)[C@@H](C)/C=C/C(=O)O)=C\C[C@H]1O[C@@]2(CC[C@H](C)[C@H](/C=C/C(C)=C/C(=O)O)O2)CC[C@@H]1C` gave an IC50 in data set [1] above 1660 nM. In data set [3], this compound had an inhibition at 30 µg/mL below 10%. Further, the inhibition at 10 µg/mL in data set [4] was below 10%. Moreover, in data set [5], the inhibition at 3 µg/mL was below 10%. For the same compound, the Activity in [8] is 12.4 µg/mL; in data set [10], “Toxic”.
Take `CCCC[C@@]1(OC(=O)CCC(=O)O)CC[C@]2(CC[C@H](C)[C@@H](C/C=C(C)/C=C/[C@H](O)[C@@H](C)/C=C/C(=O)O)O2)O[C@H]1/C=C/C(C)=C/C(=O)OC`: the IC50 in data set [1] is above 1480 nM. This compound also registered an inhibition at 100 µg/mL in [2] above 80%. Moreover, the inhibition at 30 µg/mL in data set [3] was above 80%. The compound also had an inhibition at 10 µg/mL in [4] of 10%. In [5], the inhibition at 3 µg/mL was below 10%. Moreover, the inhibition at 1 µg/mL in data set [6] was below 10%. Also, the Activity in [8] was found to be 3.1 µg/mL.
